Tested on: hepatocytes
Experiment: Metabolic stability (hepatocytes)
Assay type: in vitro ADME
Conditions: 1 μM
Experimental: a) Place incubation medium (William's E Medium supplemented with GlutaMAX) and hepatocyte thawing medium in a 37° C. water bath, and allow warming for at least 15 minutes prior to use. b) Remove a vial of cryopreserved hepatocytes from storage, ensuring that vials remain at cryogenic temperatures until thawing process ensues. Thaw the cells by placing the vial in a 37° C. water bath and gently shaking the vials for 2 minutes. After thawing is completed, spray vial with 70% ethanol, transfer the vial to a biosafety cabinet. c) Use wide-bore pipette tip to transfer hepatocytes into 50 mL conical tube containing thawing medium. Place the 50 mL conical tube into a centrifuge and spin at 100 g for 10 minutes. Upon completion of spin, aspirate thawing medium and resuspend hepatocytes in enough incubation medium to yield ˜1.5×10^6 cells/mL. d) Using a Trypan Blue exclusion, count cells and determine the viable cell density. Cells with poor viability (<75% viability) are not acceptable for use. Dilute cells with incubation medium to a working cell density of 0.5×10^6 viable cells/mL. e) A portion of the hepatocytes at 0.5×10^6 viable cells/mL was boiled for 5 min prior to adding to the plate as negative control to eliminate the enzymatic activity so that little or no substrate turnover should be observed. The boiled hepatocytes are used to prepare negative control samples, which used to exclude the misleading factor that resulted from instability of chemical itself. Negative control wells are prepared in duplicate.
a) Pipette 198 μL of hepatocytes into each wells of a 96-well non-coated plate. Place the plate in the CO2 incubator at 37° C. on an orbital shaker to allow the hepatocytes to warm for 10 minutes. b) Pipette 2 μL of the 100 μM test compounds or positive control into respective wells of the 96-well plate to start the reaction. c) Return the plate to the incubator and place on an orbital shaker with a shaking speed of 150 rpm. The reaction for each compound will be performed in duplicate.
a) Remove 25 μL aliquots of reaction mixture at time points of 0, 15, 30, 60, 90 and 120 minutes. b) The aliquots are then mixed with 6 volumes (150 μL) of acetonitrile containing internal standards (IS: 100 nM alprazolam, 200 nM labetalol, and 2 μM ketoprofen) to terminate the reaction. Centrifuge the plate for 20 minutes at 3,800 g. Aliquots of 100 μL of the supernatants will be mixed with 100 μL ultrapure water and used for LC/MS/MS analysis.

CN(C)C/C=C/C(=O)Nc1cc2c(Nc3cccc(Cl)c3F)ncnc2cc1OCCOC(F)F.O=C(O)/C=C\C(=O)O [Example I-5-MA, (E)-N-[4-(3-chloro-2-fluoro-anilino)-7-[2-(difluoromethoxy)ethoxy]quinazolin-6-yl]-4-(dimethylamino)but-2-enamide dimaleic acid salt]
% Remaining @ 120 min (Dog hepatocytes): 47.29% | % Remaining @ 120 min (Human hepatocytes): 82.95% | % Remaining @ 120 min (Monkey hepatocytes): 21.97% | % Remaining @ 120 min (Mouse hepatocytes): 36.27% | % Remaining @ 120 min (Rat hepatocytes): 59.08%

— patent US20190016689A1, “NOVEL FLUORINATED QUINAZOLINE DERIVATIVES AS EGFR INHIBITORS” (TRILLIUM THERAPEUTICS INC., priority 2016, published 2019)
